The values below come from US9975852B2, “Quinoline sulfonyl derivatives and uses thereof” (Health Sciences North Research Institute, priority 2013, dated 2018).

One series concerns 184B5. As to the kind of experiment: SRB antiproliferative assay, 184B5 non-cancer breast cells. The conditions noted are these: Homo sapiens, 184B5, SRB. It counts as cell-based, human. The method in brief:
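Cells (5,000-10,000 per well) exposed to seven drug concentrations for 48 h, then TCA-fixed and stained with 0.4% SRB. Growth computed as (Ti−Tz)/(C−Tz)×100 against time-zero and untreated controls. GI50 taken from variable-slope sigmoidal fit.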

A further series relates to HeLa. As to the kind of experiment: SRB antiproliferative assay, HeLa. It counts as cell-based. The conditions noted are these: Homo sapiens. How it is done:
Antiproliferative effects were determined by a sulforhodamine B (SRB) based protocol. For a typical screening experiment, 5,000-10,000 cells were inoculated into 100 μl medium per well of a 96-well microtiter plate as described previously. Briefly, after the inoculation, the microtiter plate was incubated at 37° C., 5% CO2, 95% air and 100% relative humidity for 24 h, prior to addition of experimental drugs. Some of the sample wells were fixed with 25 μl of 50% trichloroacetic acid (TCA) as a control of the cell population for each cell line at the time of drug addition (Tz). An aliquot of the frozen stock was thawed and diluted to the desired final maximum test-concentration with complete medium. […] The cells “stained” with SRB were solubilized with 10 mM trizma base, and the absorbance was read on an automated plate reader at a wavelength of 515-564 nm. The relative growth rate (%) was calculated for each of the compound concentrations according to the following formula: (Ti−Tz)/(C−Tz)×100 In the formula, time zero (Tz), control growth (C), and OD for different concentration of tested compounds (Ti). […] Values were calculated for each of these parameters if the level of activity was reached. However, if the effect was not reached or was exceeded, the value for that parameter was expressed as greater or less than the maximum or minimum concentration tested. […]

For series [1], the system named is MCF7 cells. Briefly: Clonogenic assay using MCF7 cells. It counts as cell-based, human. The conditions noted are these: for Average colony number: series with non-treated control 34. The procedure: The clonogenic assay was carried out as described in Santi and Lee (2011).^11
Antiproliferative activity of VR-23 was evaluated on a variety of different cell lines, alone or in combination with Bortezomib, by way of SRBSRB or clonogenic assays.

Series [2] deals with MCF7 cells. Briefly: Flow cytometry, apoptosis of MCF7 cells. It counts as cell-based, human. The conditions noted are these: VR-23 2.7 or 8.0 μM, 48 hours. How it is done: Asynchronous MCF7 cells were incubated for 48 hours in the absence (Sham treated control) or presence of VR-23 at 2.7 or 8.0 μM. […] (Note the sub-G1 DNA profile that is typical for apoptotic cell death.) The profiles of flow cytometry are consistent with the cell images in the corresponding upper panels (FIG. 3).

A further series concerns Jurkat lymphoma cells. As to the kind of experiment: Flow cytometry, apoptosis of Jurkat lymphoma cells. The conditions noted are these: 0.75 μM VR-23, 48 hours. The class given is cell-based. How it is done: Asynchronously growing Jurkat lymphoma cells were incubated for 48 hours in the absence (sham control) or presence of Bortezomib alone or in combination with VR-23.
(Flow cytometry measures light scatter and fluorescence of single cells or particles in a stream.)

A short description of another series: Body weight of CD-1 mice. The class given is in vivo. To be noted: 25 mg/kg/week VR-23 i.p.

As usually defined, the IC50 is the concentration at which inhibition is half-maximal. One may read the GI50 as the concentration that inhibits growth by half. For `O=[N+]([O-])c1ccc(S(=O)(=O)N2CCN(c3ccnc4cc(Cl)ccc34)CC2)c([N+](=O)[O-])c1` [Compound 1, 7-Chloro-4-(4-(2,4-dinitrophenylsulfonyl)piperazin-1-yl)quinoline], the IC50 in the series on 184B5 was 9 ± 0.1 µM; in the series on HeLa it was 4.4 ± 3 µM; in the series on MCF7 cells [1] (Homo sapiens, MCF7, read-out: IC50 MCF7), 1.2 ± 0.5 µM. In addition, in the series on 184B5 (48 h, read-out: GI50 184B5), the GI50 worked out at 8.99 ± 0.12 µM. In addition, the “Survival (% of the control)” value with MCF7 cells [1] (1.5 μM of VR-23 alone) is 50.3%; in the series with MCF7 cells [1] (3.1 μM of VR-23 alone) it was 46.8%. For the same compound, the Average colony number is 25 with MCF7 cells [1] (VR-23 at 0.37 μM) and 27 in the series on MCF7 cells [1] (VR-23 at 0.75 μM). Besides, in the series on MCF7 cells [2], the “Apoptosis (sub-G1 DNA profile)” value was “caused apoptosis”. Moreover, in the series with Jurkat lymphoma cells, the “Cell killing by apoptosis” value was “neither 6 nM of Bortezomib (FIG. 4, ii) nor 0.75 μM of VR-23 (FIG. 4, iv) induced substantial cell killing by apoptosis”. The “Ill effects by changes in body weights” value in “Body weight of CD-1 mice” is reported as “did not show any ill effects”.
